Results as given in paper PMC5145767 (Neuron, 2016).
Read-outs that look alike come from different tables or passages of the source.

Assays:
[1] = system: DGluR1A Y792T; assay: Proteolysis protection assay of DGluR1A Y792T mutant; type: binding, Drosophila melanogaster; settings: Figure S8B
[2] = molecular target: DGluR1A Y792T (Drosophila melanogaster, UniProt Q03445, Y792T); assay: Receptor activity of DGluR1A Y792T mutant; type: cell-based; settings: Figure S8C
[3] = system: DGluR1A ligand-binding domain; parameters: species or system Drosophila melanogaster; settings: ligand 1 mM, trypsin 1:20
[4] = molecular target: T1, DKaiR1D (Drosophila melanogaster, UniProt Q9VDH5); type: cell-based; settings: for activation of DKaiR1D: Xenopus oocytes, ligands of b17 all applied at 10 mM
[5] = system: DKaiR1D ligand-binding domain; parameters: species or system Drosophila melanogaster; settings: ligand 1 mM, trypsin 1:20, 60 min
[6] = molecular target: T2, DGluR1A (Drosophila melanogaster, UniProt Q03445); assay: DGluR1A coexpressed with Apis Stg1 in Xenopus oocytes; type: cell-based; settings: for activation, % of the response to glutamate recorded in the same cell: agonists 3 mM
T2 sequence (Q03445 28-991): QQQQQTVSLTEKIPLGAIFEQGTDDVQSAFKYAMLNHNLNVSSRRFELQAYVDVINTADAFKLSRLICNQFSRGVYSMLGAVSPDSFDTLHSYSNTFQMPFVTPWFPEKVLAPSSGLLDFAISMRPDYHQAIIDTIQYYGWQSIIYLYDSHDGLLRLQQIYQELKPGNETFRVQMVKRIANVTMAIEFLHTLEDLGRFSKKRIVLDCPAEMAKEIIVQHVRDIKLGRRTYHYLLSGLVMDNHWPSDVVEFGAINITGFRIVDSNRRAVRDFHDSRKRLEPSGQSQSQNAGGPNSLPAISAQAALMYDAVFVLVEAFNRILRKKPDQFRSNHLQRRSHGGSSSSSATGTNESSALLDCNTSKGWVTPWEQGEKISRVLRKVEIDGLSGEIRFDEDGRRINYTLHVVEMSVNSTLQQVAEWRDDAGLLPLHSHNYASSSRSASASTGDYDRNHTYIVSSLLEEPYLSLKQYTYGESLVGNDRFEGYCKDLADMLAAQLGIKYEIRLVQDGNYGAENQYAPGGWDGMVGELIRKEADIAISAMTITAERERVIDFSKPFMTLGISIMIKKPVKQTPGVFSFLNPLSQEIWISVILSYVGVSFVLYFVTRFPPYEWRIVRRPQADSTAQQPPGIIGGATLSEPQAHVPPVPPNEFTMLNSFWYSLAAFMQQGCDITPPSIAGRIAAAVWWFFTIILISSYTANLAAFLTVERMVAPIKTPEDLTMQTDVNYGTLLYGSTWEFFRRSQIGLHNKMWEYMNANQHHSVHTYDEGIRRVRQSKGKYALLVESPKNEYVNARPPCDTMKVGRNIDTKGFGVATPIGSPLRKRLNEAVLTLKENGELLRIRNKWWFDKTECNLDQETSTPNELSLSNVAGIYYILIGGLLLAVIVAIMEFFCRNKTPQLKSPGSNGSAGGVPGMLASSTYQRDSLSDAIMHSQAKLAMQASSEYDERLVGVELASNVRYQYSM

[7] = system: GluK2; settings: ref Plested and Mayer, 2007; cited from earlier work
[8] = molecular target: T1, DKaiR1D; type: cell-based
[9] = molecular target: T2, DGluR1A; settings: 1992, cited from earlier work
[10] = system: DKaiR1D Q604R; assay: DKaiR1D Q604R mutant responses in Xenopus oocytes; type: cell-based, Drosophila melanogaster; settings: 3 μM toxin, 3 mM glutamate, -60 mV
[11] = 10 mM glutamate, decay fit by sum of two exponentials
[12] = NaCl, NaMeSO3 exchange experiment

Chain of DGluR1A Y792T (Drosophila melanogaster, UniProt Q03445, Y792T) (Q03445 28-991 Y792T): as the sequence (Q03445 28-991) above, with Y765T counted along it

Cc1o[nH]c(=O)c1CC(N)C(=O)O (centres unmarked) [AMPA]
binding in proteolysis protection assay [1]: but not AMPA, binds strongly
receptor activation [2]: but not AMPA, binds strongly and produces full receptor activation
protection from digestion by trypsin [3]: but not AMPA, NMDA, aspartate or AP5 were protective
activation of DKaiR1D ([4]; -60 mV): but not AMPA, aspartate or NMDA produced activation
protection from digestion by trypsin [5]: inactive
activation, % of the response to glutamate recorded in the same cell ([6]; -60 mV, Apis Stg1): 40 ± 4%

NC(CCCP(=O)(O)O)C(=O)O (centres unmarked) [AP5]
protection from digestion by trypsin [3]: but not AMPA, NMDA, aspartate or AP5 were protective
activation of DKaiR1D ([4]; -60 mV): nor AP5 (Figure S5) produced DKaiR1D activation
protection from digestion by trypsin [5]: protective

N#Cc1cc2[nH]c(=O)c(=O)[nH]c2cc1[N+](=O)[O-] [CNQX]
protection from digestion by trypsin [3]: protective
block of responses to 10 mM glutamate ([4]; antagonist 10 mM, -60 mV): 34.3 ± 3.0%
protection from digestion by trypsin [5]: weak protection

N[C@H](CCCP(=O)(O)O)C(=O)O [D-AP5, 2(R)-amino-5-phosphonopentanoic acid]
block of responses to 1 mM glutamate [4]: 22.7 ± 0.8%
block of responses to 10 mM glutamate [4]: 16.6 ± 1.0%

N[C@@H](CCCP(=O)(O)O)C(=O)O [L-AP5]
block of responses to 1 mM glutamate ([4]; antagonist 10 mM, -60 mV): 35.7 ± 1.4%
block of responses to 10 mM glutamate ([4]; antagonist 10 mM, -60 mV): 11.7 ± 1.2%

CN[C@H](CC(=O)O)C(=O)O [NMDA]
protection from digestion by trypsin [3]: but not AMPA, NMDA, aspartate or AP5 were protective
IC50 [4]: 900 µM
activation of DKaiR1D ([4]; -60 mV): but not AMPA, aspartate or NMDA produced activation
block of responses to 10 mM glutamate ([4]; antagonist 10 mM, -60 mV): 79.2 ± 2.2%
protection from digestion by trypsin [5]: protective
activation of DGluR1A ([6]; agonist 3 mM, -60 mV, Apis Stg1): no activation

N[C@@H](CC(=O)O)C(=O)O [aspartate]
activation of DKaiR1D ([4]; -60 mV): but not AMPA, aspartate or NMDA produced activation
protection from digestion by trypsin [5]: to a lesser extent aspartate were also protective
activation, % of the response to glutamate recorded in the same cell ([6]; -60 mV, Apis Stg1): 28 ± 8%

N[C@@H](CCC(=O)O)C(=O)O [glutamate]
increase of rate of onset of desensitization on exchange of NaMeSO3 for NaCl [7]: 7 fold
protection from digestion by trypsin [3]: protective
EC50 [4]: 10700 ± 500 µM
activation of DKaiR1D ([4]; -60 mV): produced activation
deactivation rate constant ([8]; 10 mM glutamate applied for 1 ms): 2523 ± 218 s⁻¹
10–90% rise time ([8]; 10 mM glutamate applied for 1 ms, outside-out patch): 217 ± 6 μs
desensitization kfast [8, 11]: 1317 ± 105 s⁻¹
desensitization kslow [8, 11]: 107 ± 22 s⁻¹
onset of desensitization kfast ([8]; CsCl): 1884 ± 99 s⁻¹
onset of desensitization kslow ([8]; CsCl): 192 ± 28 s⁻¹
onset of desensitization kfast ([8]; NaCl, CsCl exchange experiment): 1504 ± 90 s⁻¹
onset of desensitization kslow ([8]; NaCl, CsCl exchange experiment): 165 ± 27 s⁻¹
onset of desensitization kfast [8, 12]: 1970 ± 88 s⁻¹
onset of desensitization kslow [8, 12]: 190 ± 31 s⁻¹
onset of desensitization kfast ([8]; NaMeSO3): 1985 ± 68 s⁻¹
onset of desensitization kslow ([8]; NaMeSO3): 236 ± 39 s⁻¹
recovery from desensitization kslow ([8]; twin pulse protocol, sum of two exponentials): 9.9 s⁻¹
protection from digestion by trypsin [5]: prevented digestion by trypsin
EC50 [6]: 136 ± 8 µM

C=C(C)[C@H]1CN[C@H](C(=O)O)[C@H]1CC(=O)O [kainate]
protection from digestion by trypsin [3]: protective
activation of DKaiR1D ([4]; -60 mV): produced activation
protection from digestion by trypsin [5]: prevented digestion by trypsin
EC50 [6]: 125 ± 4 µM
EC50 ([9]; read-out: EC50 for activation, prior studies ref Ultsch et al.): 75 µM

N[C@@H](Cn1oc(=O)[nH]c1=O)C(=O)O [quisqualate, quisqualic acid]
binding in proteolysis protection assay [1]: binds strongly
receptor activation [2]: produces full receptor activation
protection from digestion by trypsin [3]: protective
amplitude of responses relative to those to glutamate [4]: 0.78 ± 0.03
activation of DKaiR1D ([4]; -60 mV): produced activation
protection from digestion by trypsin [5]: prevented digestion by trypsin
activation, % of the response to glutamate recorded in the same cell ([6]; -60 mV, Apis Stg1): 41 ± 3%

philanthotoxin-433
block of Q604R mutant responses to glutamate [10]: did not block
block of wild type responses to glutamate by extracellular toxin ([4]; 3 μM toxin, 3 mM glutamate, -60 mV, several minutes for full recovery): blocked
inhibition of DGluR1A ([9]; ref Ultsch et al.): inhibition of DGluR1A by philanthotoxin
